Results: ChEMBL document CHEMBL5465560, “Selectivity Literature for EUbOPEN Chemogenomic Library” (2024)
Where a chain is given by its changes, count along the chain named.

Experiments:
[1] = biological target: Dual specificity testis-specific protein kinase 1 (Homo sapiens) (UniProt Q15569); details: at 10 µM
[2] = biological target: T1, Serine/threonine-protein kinase TAO3 (Homo sapiens) (UniProt Q9H2K8); experiment: Selectivity interaction (KinomeScan (DiscoverX)) EUB0000595a TAOK3; details: at 10 µM
T1 sequence (whole entry): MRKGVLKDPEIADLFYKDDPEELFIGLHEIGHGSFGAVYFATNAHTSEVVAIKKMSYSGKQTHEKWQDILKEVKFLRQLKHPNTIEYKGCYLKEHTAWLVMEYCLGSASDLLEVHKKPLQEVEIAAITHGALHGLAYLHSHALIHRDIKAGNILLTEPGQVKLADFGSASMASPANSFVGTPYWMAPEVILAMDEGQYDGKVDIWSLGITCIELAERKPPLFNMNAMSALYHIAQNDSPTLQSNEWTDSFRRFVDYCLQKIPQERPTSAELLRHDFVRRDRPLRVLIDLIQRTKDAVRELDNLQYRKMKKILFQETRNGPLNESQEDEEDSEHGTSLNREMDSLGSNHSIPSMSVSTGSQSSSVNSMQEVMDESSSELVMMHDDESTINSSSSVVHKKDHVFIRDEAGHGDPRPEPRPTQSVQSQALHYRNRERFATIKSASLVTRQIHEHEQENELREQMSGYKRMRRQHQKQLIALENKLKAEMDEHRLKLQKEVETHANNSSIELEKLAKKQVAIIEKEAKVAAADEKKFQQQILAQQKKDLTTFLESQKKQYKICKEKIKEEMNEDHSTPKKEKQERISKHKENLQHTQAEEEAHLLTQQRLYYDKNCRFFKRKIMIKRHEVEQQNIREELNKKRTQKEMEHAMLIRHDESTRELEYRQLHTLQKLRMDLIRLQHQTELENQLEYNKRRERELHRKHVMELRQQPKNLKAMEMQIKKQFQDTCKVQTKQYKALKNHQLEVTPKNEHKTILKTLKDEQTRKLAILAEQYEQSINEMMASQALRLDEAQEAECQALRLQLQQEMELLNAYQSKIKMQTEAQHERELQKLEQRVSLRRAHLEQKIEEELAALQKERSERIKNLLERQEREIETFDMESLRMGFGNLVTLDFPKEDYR

[3] = biological target: Receptor-type tyrosine-protein kinase FLT3 (Homo sapiens) (UniProt P36888); experiment: (§1) Selectivity interaction (KinomeScan (DiscoverX)) EUB0001619a FLT3; details: at 1 µM
[4] = test system: T2, Receptor-type tyrosine-protein kinase FLT3 (Homo sapiens), P36888 [D835Y]; experiment: as §1; details: at 1 µM
T2 sequence (whole entry): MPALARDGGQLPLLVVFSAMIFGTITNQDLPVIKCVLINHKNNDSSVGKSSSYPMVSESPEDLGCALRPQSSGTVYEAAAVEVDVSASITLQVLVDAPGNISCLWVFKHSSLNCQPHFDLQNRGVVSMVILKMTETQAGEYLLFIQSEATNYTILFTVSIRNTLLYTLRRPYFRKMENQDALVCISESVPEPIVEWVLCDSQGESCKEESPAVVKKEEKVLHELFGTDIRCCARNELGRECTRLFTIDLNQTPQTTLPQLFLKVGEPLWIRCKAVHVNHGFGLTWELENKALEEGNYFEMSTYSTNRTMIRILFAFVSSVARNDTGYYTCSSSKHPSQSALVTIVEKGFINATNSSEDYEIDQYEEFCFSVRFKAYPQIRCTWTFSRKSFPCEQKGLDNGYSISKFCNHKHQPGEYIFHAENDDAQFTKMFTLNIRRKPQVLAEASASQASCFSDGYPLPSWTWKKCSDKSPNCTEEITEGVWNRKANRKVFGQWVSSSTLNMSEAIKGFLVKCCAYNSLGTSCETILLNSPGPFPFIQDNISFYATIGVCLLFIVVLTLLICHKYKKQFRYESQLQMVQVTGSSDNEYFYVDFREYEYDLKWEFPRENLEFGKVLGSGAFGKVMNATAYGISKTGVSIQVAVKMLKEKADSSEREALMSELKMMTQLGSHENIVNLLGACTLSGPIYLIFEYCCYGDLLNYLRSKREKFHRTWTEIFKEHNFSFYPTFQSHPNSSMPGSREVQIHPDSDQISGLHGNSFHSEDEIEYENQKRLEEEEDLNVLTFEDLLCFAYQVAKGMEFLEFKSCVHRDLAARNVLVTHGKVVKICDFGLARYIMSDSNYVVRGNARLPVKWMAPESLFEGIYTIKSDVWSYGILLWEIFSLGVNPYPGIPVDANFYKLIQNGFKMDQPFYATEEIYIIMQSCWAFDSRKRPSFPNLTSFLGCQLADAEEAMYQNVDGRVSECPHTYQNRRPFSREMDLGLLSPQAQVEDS

[5] = test system: T3, Receptor-type tyrosine-protein kinase FLT3 (Homo sapiens), P36888 [N841I]; experiment: as §1; details: at 1 µM
T3 sequence (whole entry): T2 sequence (whole entry) with Y835D, N841I

[6] = test system: Receptor-type tyrosine-protein kinase FLT3 (Homo sapiens), P36888 [UNDEFINED MUTATION]; experiment: as §1; details: at 1 µM

Chain of Dual specificity testis-specific protein kinase 1 (Homo sapiens) (Q15569 whole entry, looked up): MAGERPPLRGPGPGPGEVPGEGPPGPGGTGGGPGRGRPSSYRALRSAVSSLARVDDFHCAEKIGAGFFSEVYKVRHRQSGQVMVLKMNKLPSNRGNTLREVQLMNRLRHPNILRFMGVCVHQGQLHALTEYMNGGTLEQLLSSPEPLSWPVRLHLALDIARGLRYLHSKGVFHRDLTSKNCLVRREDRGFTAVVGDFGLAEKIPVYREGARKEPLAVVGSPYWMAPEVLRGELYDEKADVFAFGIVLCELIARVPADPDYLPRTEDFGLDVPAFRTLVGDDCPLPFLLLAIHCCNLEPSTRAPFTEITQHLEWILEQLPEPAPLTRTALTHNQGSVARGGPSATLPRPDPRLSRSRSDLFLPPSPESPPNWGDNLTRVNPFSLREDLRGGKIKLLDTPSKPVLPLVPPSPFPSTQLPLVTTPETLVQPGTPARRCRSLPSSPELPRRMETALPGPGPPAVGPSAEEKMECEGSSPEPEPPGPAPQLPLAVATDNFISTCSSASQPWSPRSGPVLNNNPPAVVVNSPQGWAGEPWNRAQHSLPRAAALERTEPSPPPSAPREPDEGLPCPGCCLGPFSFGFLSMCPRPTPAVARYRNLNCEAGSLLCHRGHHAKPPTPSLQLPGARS

In the case of Cc1cc([C@@H](C)Nc2ccccc2C(=O)O)c2nc(N3CCOCC3)cc(=O)n2c1 [AZD-6482], the % of control [1] is reported as 100%.

COCC(=O)NC/C=C/c1ccc2ncnc(Nc3ccc(Oc4ccc(C)nc4)c(C)c3)c2c1 [CP-724714] was tested, and the % of control [2] was 100%.

N#Cc1cccc(-c2c[nH]c3ncnc(N4CCOCC4)c23)c1 showed a % of control [3] of 89%, a % of control [4] of 65% and a % of control [5] of 100%. The % of control [6] was 100%.
